Test results from patent publication US20210100834A1, “COMPOSITION CONTAINING A CHLORIDE SALT FOR USE IN PREGNANT ANIMALS” (Nutreco IP Assets B.V., priority 2017, published 2021).

Tested on: pregnant sows
Assay: Drinking water treatment of pregnant sows with calcium chloride and phosphoric acid, perinatal phenomena
Type: in vivo
Experimental: In another experiment, cations and anions were added to drinking water in such a balance, that the daily cation/anion balance of diet plus drinking water was reduced. For this, the drinking water contained 1.5 g calcium chloride per liter. […] In this experiment, next to the calcium chloride to reduce the daily cation/anion balance, a calcium binder (phosphoric acid, PhA)) was added in a concentration of 0.01 mol/liter.
It is believed that binding of dietary calcium in the gut and the inherent effect of reducing the amount of calcium available to the animal has as a consequence that the animal is triggered to mobilise calcium from its own mineral reserves in the bones. Therefore, when demand for calcium is increased as in parturition, the animal is more prepared to face this demand, and better equipped to maintain blood Ca levels.

**Q.** Which Postnatal mortality (in vivo) does the source give for `O=P(O)(O)O` [PhA, phosphoric acid] here?
**A.** 9.4%

**Q.** And the “effect of addition of calcium binder on perinatal mortality” value (in vivo)?
**A.** no negative effect

**Q.** What about the “Piglets with colostrum intake <250 g/24 h” value (treated drinking water) of the same molecule?
**A.** 15.1%

**Q.** And the “Average colostrum intake per piglet” value (treated drinking water, calculated from weight gain)?
**A.** 408 g/24 h
